The results in this text go back to US20080255498A1, “Sensitizer Solutions, Systems, and Methods of Use” (priority 2005, published 2008).

A short description of the data set: Spectral absorption of light of sensitizer solutions (FIG. 2A, 2B). In kind it is physicochemical. The text has this:
FIG. 2A is a graphic representation of spectral absorption of light for two embodiments of the sensitizer solution plotting absorbance versus wavelength in nm.
FIG. 2B is a graphic representation of the spectral absorption of light for four embodiments of the sensitizer solution plotting absorbance versus wavelength in nm.
FIGS. 2A and 2B illustrate that the sensitizer solution 12 has an electromagnetic energy absorption level dependent on the frequency (i.e., wavelength) of the electromagnetic energy. […] See U.S. Pat. No. 6,561,808 by Neuberger.

With silicon naphthalocyanine, the “absorption spectrum primary peak” value is recorded as “about 773 nm”, the “absorption spectrum secondary peak” value is listed as “about 690 nm” and the “absorption spectrum tertiary peak” value is “about 735 nm”.
As for `C=Cc1c(C)c2cc3nc(c(CC(=O)O)c4[nH]c(cc5nc(cc1[nH]2)C(C)=C5CC)c(C)c4C(=O)O)[C@@H](CCC(=O)O)[C@@H]3C` [chlorin e6], the “absorption spectrum primary peak” value was “about 665 nm”, the “absorption spectrum secondary peak” value is “about 575 nm” and the “absorption spectrum tertiary peak” value was “about 515 nm”.
With bacteriochlorin a, the “absorption spectrum primary peak” value is “about 765 nm” and the “absorption spectrum secondary peak” value is “about 605 nm”.
